Patent publication US9738613B2, “Substituted 1,2,3-triazoles as antitumor agents” (National Central University, priority 2015, dated 2017)
Where a name gives a salt, the structure may show the parent alone. Read-outs that look alike come from different tables or passages of the source.

Key:
PC-3 cells = assay: Sulforhodamine B (SRB) growth inhibition assay, PC-3 cells; format: cell-based, Human
Description: (§1) Human hormone-refractory prostate cancer cell lines PC-3 and DU-145 were from American Type Culture Collection (Rockville, MD). Cells were cultured in RPMI 1640 medium with 10% FBS (v/v) and penicillin (100 U/ml)/streptomycin (100 μg/ml). Cultures were maintained in a humidified incubator at 37° C. in 5% CO2/95% air.
(§2) Cells were seeded in 96-well plates in medium with 5% FBS. After 24 hours, cells were fixed with 10% TCA to represent cell population at the time of drug addition (T0). After additional incubation of DMSO or the compound for 48 hours (PC-3 cells) or 72 hours (DU145 cells), cells were fixed with 10% TCA and SRB at 0.4% (w/v) in 1% acetic acid was added to stain cells. Unbound SRB was washed out by 1% acetic acid and SRB bound cells were solubilized with 10 mM Trizma base. The absorbance was read at a wavelength of 515 nm. Using the following absorbance measurements, such as time zero (T0), control growth (C), and cell growth in the presence of the compound (Tx), the percentage growth was calculated at each of the compound concentrations levels. Percentage growth inhibition was calculated as: [1−(Tx−T0)/(C−T0)]×100%. Growth inhibition of 50% (IC50) is determined at the compound concentration which results in 50% reduction of total protein increase in control cells during the compound incubation. Data are expressed as mean±SEM of three to five determinations.

DU-145 cells = assay: Sulforhodamine B (SRB) growth inhibition assay, DU-145 cells; format: cell-based, Human
Description: as §1, §2

[1] = human hormone-refractory prostate cancer PC-3 cells, 48 hours incubation, read-out: PC-3 cells IC50
[2] = human hormone-refractory prostate cancer DU-145 cells, 72 hours incubation, read-out: DU-145 cells IC50
[3] = Homo sapiens, PC-3 cells, 48 hours, bound stated, read-out: IC50 in PC-3 cells (text summary of Table 1)
[4] = Homo sapiens, DU-145 cells, 72 hours, bound stated, read-out: IC50 in DU-145 cells (text summary of Table 1)

Row | Compound | IC50 (PC-3 cells; [1]) [µM] | IC50 (DU-145 cells; [2]) [µM] | IC50 (PC-3 cells; [3]) [µM] | IC50 (DU-145 cells; [4]) [µM]
1 | 2-Amino-2-(4-(1-tetradecyl-1H-1,2,3-triazol-4-yl)butyl)propane-1,3-diol hydrochloride [Compound 10] | 8.97 | 6.2 |  | 
2 | 2-Amino-2-((1-pentadecyl-1H-1,2,3-triazol-4-yOmethyl)propane-1,3-diol hydrochloride [Compound 5] | 3.5 |  |  | 
3 | CCCCCCCCCCCCCCn1cc(CC(N)(CO)CO)nn1 [Compound 1, 2-Amino-2-((1-tetradecyl-1H-1,2 ,3-triazol-4-yl)methyl)propane-1,3-diol hydrochloride] | 4.9 | 4.7 | < 5 | < 5
4 | CCCCCCCCCCCCCCCCn1cc(CC(N)(CO)CO)nn1 [Compound 2, 2-Amino-2-((1-hexadecyl-1H-1,2,3-triazol-4-yl)methyl)propane-1,3-diol hydrochloride] | 3.3 | 5.3 | < 5 | < 10
5 | CCCCCCCCCCCCCCCCCCn1cc(CC(N)(CO)CO)nn1 [Compound 3, 2-Amino-2-((1-octadecyl-1H-1,2,3-triazol-4-yl)methyl)propane-1,3-diol hydrochloride] | 4.5 | 5.7 | < 5 | < 10
6 | CCCCCCCCCCCCCCCCCCn1cc(CCC(N)(CO)CO)nn1 [Compound 4, 2-Amino-2-(2-(1-octadecyl-1H-1,2,3-triazol-4-yl)ethyl)propane-1,3-diol hydrochloride] | 3.6 | 2.4 | < 5 | < 5
7 | CCCCCCCCCCCCCCCCn1cc(CCC(N)(CO)CO)nn1 [Compound 6, 2-Amino-2-(2-(1-hexadecyl-1H-1,2,3-triazol-4-yl)ethyl)propane-1,3-diol hydrochloride] | 6.2 |  | < 10 | 
8 | CCCCCCCCCCCCCCCCCCn1cc(CC(N)(C(=O)OCC)C(=O)OCC)nn1 [Compound 7, Diethyl 2-amino-2-((1-octadecyl-1H-1,2,3-triazol-4-yl)methyl)malonate hydrochloride] | 7.9 | > 10 | < 10 | 
9 | CCCCCCCCCCCCCCCCCCCCn1cc(CC(N)(CO)CO)nn1 [Compound 8, 2-Amino-2-((1-icosyl-1H-1,2,3-triazol-4-yl)methyl)propane-1,3-diol hydrochloride] | 3.8 | 6.2 | < 5 | < 10
10 | CCCCCCCCCCCCCCn1cc(CCCC(N)(CO)CO)nn1 [Compound 9, 2-Amino-2-(3-(1-tetradecyl-1H-1,2,3-triazol-4-yl)propyl)propane-1,3-diol hydrochloride] | 4.2 | 5.4 | < 5 | < 10
11 | CCCCCCCCCCCCCn1cc(CC(N)(CO)CO)nn1 [Compound 11, 2-Amino-2-((1-tridecyl-1H-1,2,3-triazol-4-yl)methyl)propane-1,3-diol hydrochloride] | 5.31 | 4.2 | < 10 | < 5
12 | CCCCCCCCCCCCCCCCCCCCn1cc(CC(CO)(COC)NC)nn1 (stereo not shown) [Compound 12, 3-(1-Icosyl-1H-1,2,3-triazol-4-yl)-2-(methoxymethyl)-2-(methylamino)propan-1-ol] | 2.99 | 4.68 | < 5 | < 5
